Laboratory results taken from US20100144855A1, “APPLICATION OF SEDOISOPROSAN FOR PREPARATION OF MEDICINE FOR TREATMENT OF HUMAN HBeAg POSITIVE CHRONIC HEPATITIS B” (priority 2008, published 2010).

Assay: clinical trial, safety in HBeAg positive chronic hepatitis B patients
Format: in vivo, human
Conditions: for cases with adverse events: 16 cases
Text: The clinical trial protocol was designed according to the randomized, double-blind and controlled principle. The clinical efficacy and the safety of sedoisoprosan for therapy on human HBeAg positive chronic hepatitis B is defined according to the changes of vivo HBV-DNA level, ALT level, vital signs, blood routine indexes, blood biochemical indexes and thyroid function indexes before and after administration and the incidence of adverse events.
Patients enrolled in the clinical trials were randomly divided into four groups, i.e. negative control group (800 mg mannite), low dose group (200 mg sedoisoprosan with 600 mg mannite), median dose group (400 mg sedoisoprosan with 400 mg mannite) and high dose group (800 mg sedoisoprosan) respectively. Each patient was assigned with a CRF No. which was randomly generated by computer.
Baseline assessment was performed on the day of the first administration, which included medical examination, hematological examination, blood biochemical examination, thyroid function examination, ALT examination and quantitative detection of HBV-DNA. The medical examination included the examination of stature, avoirdupois, blood pressure and pulse rate. The hematological examination included the leucocyte, neutrophil, erythrocyte, platelet and haemoglobin counts, and the prothrombin time. The blood biochemical examination included the examination of serum potassium, sodium, GOT, total bilirubin, AKP, total protein, albumin, total cholesterol, triglyceride, urea nitrogen, creatinine and glucose.
The patients were followed up at the 1st, 2nd, 4th, 8th and 12th week of the treatment. The blood biochemical examination and the quantitative detection of HBV-DNA was performed at the 2nd, 4th, 8th and 12th week of the treatment, and the adverse events were recorded at the same time. The thyroid function examination was performed at the 12th week of the treatment.
The safety indexes included vital signs, clinical laboratory parameters, adverse events, important adverse events, serious adverse events and the early termination cases. The safety analysis should be performed on patients who have received at least once administration and were evaluated after the administration.
The detection of vital signs and laboratory parameters and the recording for adverse events was performed at baseline and at the 1st, 2nd, 4th, 8th and 12th week of the treatment. The vital signs and laboratory parameters were evaluated by the changes thereof before and after the treatment. The incidence of adverse events was figured by the proportion of patients having adverse events during the treatment, and the evaluation of adverse events included the kinds, grades and the relationship to the drugs. The adverse events were recorded by descriptive statistics, and comparison of the incidence thereof between the four groups was performed by Fisher probabilistic test.

[1] = high dose group, 800 mg, the 1st week
[2] = high dose group, 800 mg, the 2nd week
[3] = high dose group, 800 mg, the 4th week
[4] = high dose group, 800 mg, the 8th week
[5] = high dose group, 800 mg, the 12th week
[6] = low dose group, 200 mg, the 1st week
[7] = low dose group, 200 mg, the 2nd week
[8] = low dose group, 200 mg, the 4th week
[9] = low dose group, 200 mg, the 8th week
[10] = low dose group, 200 mg, the 12th week
[11] = median dose group, 400 mg, the 1st week
[12] = median dose group, 400 mg, the 2nd week
[13] = median dose group, 400 mg, the 4th week
[14] = median dose group, 400 mg, the 8th week
[15] = median dose group, 400 mg, the 12th week
[16] = patient CRF 3, high dose group (800 mg)
[17] = patient CRF 7, low dose group (200 mg)
[18] = patient CRF 10, low dose group (200 mg)
[19] = patient CRF 14, low dose group (200 mg)
[20] = patient CRF 15, median dose group (400 mg)
[21] = patient CRF 17, low dose group (200 mg)
[22] = patient CRF 19, high dose group (800 mg)
[23] = patient CRF 20, median dose group (400 mg)
[24] = patient CRF20, median dose group, after 8 weeks' treatment
[25] = patient CRF 32, median dose group (400 mg)
[26] = patient CRF 60, median dose group (400 mg)

CC1(C)OC2C3COC(CO)(O3)C(O)C2O1 (centres unmarked) [sedoisoprosan, isopropylidene sedoheptulosan]
safety of the highest dose (vital signs, blood routine and blood biochemical indexes) (800 mg): safe
changes in total bilirubin levels before and after the treatment (12 weeks' treatment): significant changes in total bilirubin levels before and after the treatment, but such changes were still within the normal range
changes in vital signs, blood routine indexes and blood biochemical indexes, excluding the total bilirubin levels, before and after the treatment (12 weeks' treatment): No significant changes
important adverse events related to the study drug and needing treatment (CRF16, CRF19 and CRF20): 3 cases
central nervous system abnormalities among adverse events (all groups): No central nervous system abnormalities were found
incidence of adverse events (clinical trials, 200-800 mg): low
patients who quitted the clinical trials for adverse events (high dose group): No patients
cases with adverse events (high dose group (800 mg)): two
Avoirdupois [1]: 61.34 ± 9.96 kg
Diastolic Pressure [1]: 75.31 ± 7.26 mmHg
Pulse rate [1]: 76.00 ± 5.81 times/min
Respiratory frequency [1]: 18.00 ± 1.86 times/min
Systolic Pressure [1]: 115.56 ± 13.17 mmHg
Avoirdupois [2]: 61.41 ± 9.89 kg
Diastolic Pressure [2]: 75.31 ± 6.14 mmHg
Pulse rate [2]: 75.81 ± 5.27 times/min
Respiratory frequency [2]: 18.38 ± 1.78 times/min
Systolic Pressure [2]: 112.81 ± 12.55 mmHg
Avoirdupois [3]: 61.53 ± 9.81 kg
Diastolic Pressure [3]: 75.44 ± 6.03 mmHg
Pulse rate [3]: 76.38 ± 5.95 times/min
Respiratory frequency [3]: 17.94 ± 1.84 times/min
Systolic Pressure [3]: 112.69 ± 11.69 mmHg
Avoirdupois [4]: 62.06 ± 9.20 kg
Diastolic Pressure [4]: 77.56 ± 5.05 mmHg
Pulse rate [4]: 75.75 ± 5.27 times/min
Respiratory frequency [4]: 18.75 ± 1.24 times/min
Systolic Pressure [4]: 115.19 ± 10.91 mmHg
Avoirdupois [5]: 62.67 ± 9.45 kg
Diastolic Pressure [5]: 76.73 ± 5.16 mmHg
Pulse rate [5]: 75.73 ± 4.85 times/min
Respiratory frequency [5]: 19.13 ± 1.13 times/min
Systolic Pressure [5]: 115.20 ± 11.55 mmHg
cases with adverse events (low dose group (200 mg)): four
Avoirdupois [6]: 61.72 ± 10.47 kg
Diastolic Pressure [6]: 72.38 ± 5.14 mmHg
Pulse rate [6]: 76.06 ± 5.95 times/min
Respiratory frequency [6]: 18.63 ± 1.31 times/min
Systolic Pressure [6]: 116.63 ± 8.79 mmHg
Avoirdupois [7]: 61.59 ± 10.80 kg
Diastolic Pressure [7]: 73.38 ± 6.01 mmHg
Pulse rate [7]: 74.13 ± 4.70 times/min
Respiratory frequency [7]: 18.75 ± 1.57 times/min
Systolic Pressure [7]: 116.00 ± 10.67 mmHg
Avoirdupois [8]: 61.57 ± 10.72 kg
Diastolic Pressure [8]: 74.87 ± 6.55 mmHg
Pulse rate [8]: 75.13 ± 4.50 times/min
Respiratory frequency [8]: 18.60 ± 1.30 times/min
Systolic Pressure [8]: 113.93 ± 9.95 mmHg
Avoirdupois [9]: 62.86 ± 11.14 kg
Diastolic Pressure [9]: 73.29 ± 5.82 mmHg
Pulse rate [9]: 73.57 ± 5.65 times/min
Respiratory frequency [9]: 18.64 ± 1.45 times/min
Systolic Pressure [9]: 115.71 ± 9.75 mmHg
Avoirdupois [10]: 63.58 ± 12.09 kg
Diastolic Pressure [10]: 74.54 ± 4.94 mmHg
Pulse rate [10]: 71.54 ± 4.16 times/min
Respiratory frequency [10]: 19.15 ± 1.28 times/min
Systolic Pressure [10]: 115.85 ± 10.79 mmHg
cases with adverse events (median dose group (400 mg)): four
Avoirdupois [11]: 62.67 ± 12.11 kg
Diastolic Pressure [11]: 71.53 ± 7.53 mmHg
Pulse rate [11]: 77.60 ± 3.83 times/min
Respiratory frequency [11]: 19.13 ± 3.76 times/min
Systolic Pressure [11]: 114.33 ± 11.00 mmHg
Avoirdupois [12]: 62.30 ± 12.09 kg
Diastolic Pressure [12]: 71.73 ± 6.24 mmHg
Pulse rate [12]: 75.47 ± 5.36 times/min
Respiratory frequency [12]: 18.53 ± 3.54 times/min
Systolic Pressure [12]: 114.67 ± 9.85 mmHg
Avoirdupois [13]: 61.73 ± 9.86 kg
Diastolic Pressure [13]: 73.13 ± 5.69 mmHg
Pulse rate [13]: 76.40 ± 3.81 times/min
Respiratory frequency [13]: 18.40 ± 4.03 times/min
Systolic Pressure [13]: 115.80 ± 10.25 mmHg
Avoirdupois [14]: 62.70 ± 11.76 kg
Diastolic Pressure [14]: 73.73 ± 4.51 mmHg
Pulse rate [14]: 75.40 ± 3.25 times/min
Respiratory frequency [14]: 19.27 ± 2.34 times/min
Systolic Pressure [14]: 110.87 ± 7.70 mmHg
Avoirdupois [15]: 59.88 ± 8.18 kg
Diastolic Pressure [15]: 74.77 ± 5.15 mmHg
Pulse rate [15]: 78.00 ± 4.53 times/min
Respiratory frequency [15]: 19.31 ± 2.66 times/min
Systolic Pressure [15]: 115.69 ± 9.67 mmHg
reason for early termination (one patient, low dose group, after 6 weeks' treatment): progressive increasing ALT level
Adverse event Liver Dysfunction: Outcome [16]: Remission Without Sequela
Adverse event Liver Dysfunction: Relation to the study drug [16]: Unrelated
Adverse event Liver Dysfunction: Severity [16]: Light
Adverse event Urinary Tract Infection: Outcome [17]: Remission Without Sequela
Adverse event Urinary Tract Infection: Relation to the study drug [17]: Unrelated
Adverse event Urinary Tract Infection: Severity [17]: Light
Adverse event Progressive Increase in ALT Level: Outcome [18]: Reexamination of Liver Function After A Week
Adverse event Progressive Increase in ALT Level: Relation to the study drug [18]: Maybe Unrelated
Adverse event Progressive Increase in ALT Level: Severity [18]: Middle
Adverse event Alopecia: Outcome [19]: No Change
Adverse event Alopecia: Relation to the study drug [19]: Maybe Related
Adverse event Alopecia: Severity [19]: Light
Adverse event Gingival Bleeding: Outcome [19]: Remission Without Sequela
Adverse event Gingival Bleeding: Relation to the study drug [19]: Maybe Unrelated
Adverse event Gingival Bleeding: Severity [19]: Light
Adverse event Liver Dysfunction: Outcome [19]: Remission Without Sequela
Adverse event Liver Dysfunction: Relation to the study drug [19]: Maybe Unrelated
Adverse event Liver Dysfunction: Severity [19]: Light
Adverse event Pharyngoxerosis: Outcome [19]: Remission Without Sequela
Adverse event Pharyngoxerosis: Relation to the study drug [19]: Unrelated
Adverse event Pharyngoxerosis: Severity [19]: Light
Adverse event Alopecia: Outcome [20]: No Change
Adverse event Alopecia: Relation to the study drug [20]: Maybe Related
Adverse event Alopecia: Severity [20]: Light
Adverse event Emesis: Outcome [20]: Remission Without Sequela
Adverse event Emesis: Relation to the study drug [20]: Maybe Unrelated
Adverse event Emesis: Severity [20]: Light
Adverse event Gingival Bleeding: Outcome [20]: Remission Without Sequela
Adverse event Gingival Bleeding: Relation to the study drug [20]: Maybe Unrelated
Adverse event Gingival Bleeding: Severity [20]: Light
Adverse event Increase in ALT Level: Outcome [20]: Remission Without Sequela
Adverse event Increase in ALT Level: Relation to the study drug [20]: Maybe Unrelated
Adverse event Increase in ALT Level: Severity [20]: Light
Adverse event Alopecia: Outcome [21]: No Change
Adverse event Alopecia: Relation to the study drug [21]: Maybe Related
Adverse event Alopecia: Severity [21]: Light
Adverse event ALT 74 U/L, TBil 133.1: Outcome [22]: Remission Without Sequela
Adverse event ALT 74 U/L, TBil 133.1: Relation to the study drug [22]: Maybe Related
Adverse event ALT 74 U/L, TBil 133.1: Severity [22]: Middle
Adverse event Aggravated Muscle Ache: Outcome [22]: Remission Without Sequela
Adverse event Aggravated Muscle Ache: Relation to the study drug [22]: Maybe Related
Adverse event Aggravated Muscle Ache: Severity [22]: Middle
Adverse event Costalgia And Notalgia: Outcome [22]: Remission Without Sequela
Adverse event Costalgia And Notalgia: Relation to the study drug [22]: Maybe Related
Adverse event Costalgia And Notalgia: Severity [22]: Middle
Adverse event Generalized Muscle Ache: Outcome [22]: Remission Without Sequela
Adverse event Generalized Muscle Ache: Relation to the study drug [22]: Maybe Related
Adverse event Generalized Muscle Ache: Severity [22]: Light
Adverse event Acid Regurgitation: Outcome [23]: Remission Without Sequela
Adverse event Acid Regurgitation: Relation to the study drug [23]: Maybe Related
Adverse event Acid Regurgitation: Severity [23]: Light
Adverse event Aggravated Digestive Symptom: Outcome [23]: Remission Without Sequela
Adverse event Aggravated Digestive Symptom: Relation to the study drug [23]: Related
Adverse event Aggravated Digestive Symptom: Severity [23]: Middle
Adverse event Dark Urine: Outcome [23]: Remission Without Sequela
Adverse event Dark Urine: Relation to the study drug [23]: Related
Adverse event Dark Urine: Severity [23]: Middle
Adverse event Epigastric Discomfort: Outcome [23]: Remission Without Sequela
Adverse event Epigastric Discomfort: Relation to the study drug [23]: Related
Adverse event Epigastric Discomfort: Severity [23]: Middle
Adverse event Hypodynamia: Outcome [23]: Remission Without Sequela
Adverse event Hypodynamia: Relation to the study drug [23]: Related
Adverse event Hypodynamia: Severity [23]: Middle
Adverse event Icterus: Outcome [23]: Remission Without Sequela
Adverse event Icterus: Relation to the study drug [23]: Related
Adverse event Icterus: Severity [23]: Middle
ALT level at early termination [24]: 343 U/L
AST level at early termination [24]: 517 U/L
TBil level at early termination [24]: 68.1 µmol/L
Adverse event Toothache And Periodontitis: Outcome [25]: Remission Without Sequela
Adverse event Toothache And Periodontitis: Relation to the study drug [25]: Unrelated
Adverse event Toothache And Periodontitis: Severity [25]: Middle
Adverse event Upper Respiratory Tract Infection: Outcome [26]: Remission Without Sequela
Adverse event Upper Respiratory Tract Infection: Relation to the study drug [26]: Unrelated
Adverse event Upper Respiratory Tract Infection: Severity [26]: Middle
